Reference: patent US9951042B2, “Polymorphic form of [5-fluoro-3-({2-[(4-fluorobenzene) sulfonyl] pyridin-3-yl}methyl)-2-methylindol-1-yl]-acetic acid” (Atopix Therapeutics Limited, priority 2014, dated 2018)
Values after ≈ are worked out from the molar mass of the structure shown. “Also recorded” adds a separate entry of the source.

Key:
[1] = biological target: T1, CRTH2 receptor (Homo sapiens, UniProt Q9Y5Y4); details: cited from earlier work
T1 sequence (Q9Y5Y4 1-395): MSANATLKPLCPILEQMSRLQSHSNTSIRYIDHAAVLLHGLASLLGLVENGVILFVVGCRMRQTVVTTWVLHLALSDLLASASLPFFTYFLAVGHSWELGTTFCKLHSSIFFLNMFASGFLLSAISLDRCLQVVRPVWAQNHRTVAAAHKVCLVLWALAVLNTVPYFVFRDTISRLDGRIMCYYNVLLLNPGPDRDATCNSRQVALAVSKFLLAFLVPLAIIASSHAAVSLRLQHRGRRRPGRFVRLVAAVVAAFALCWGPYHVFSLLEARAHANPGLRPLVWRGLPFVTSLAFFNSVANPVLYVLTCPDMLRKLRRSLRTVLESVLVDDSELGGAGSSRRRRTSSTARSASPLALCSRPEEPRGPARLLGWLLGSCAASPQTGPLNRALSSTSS

[2] = TG-FTIR thermogravimetry; type: physicochemical; details: 25° C. to 250° C., heating rate 10° C./min
Procedure: TG-FTIR: Thermogravimetric measurements were carried out with a Netzsch Thermo-Microbalance TG 209 coupled to a Bruker FTIR Spectrometer Vector 22 or IFS 28 (sample pans with a pinhole, N2 atmosphere, heating rate 10° C./min, range 25° C. up to 250° C.).
Batch 3 was analyzed by TG-FTIR in a temperature range of 25° C. to 250° C. and a heating rate of 10° C./min. […] Decomposition occurs above ˜160° C. Therefore the material is likely a non-solvated form.

[3] = Solubility of polymorphic forms in simulated intestinal fluids by HPLC; type: physicochemical; details: for Solubility / pH of Saturated solution: 25° C., equilibrated 24 hours
Procedure: The solubility of Form 1, Form 2 and Form 3 was determined by HPLC in fasted state simulated intestinal fluid (FaSSIF) and fed state simulated intestinal fluid (FeSSIF) at 25° C. FaSSIF and FeSSIF were prepared from SIF powder, available at PHARES, Switzerland. Suspensions of […] were prepared and equilibrated for 24 hours at 25° C. The suspensions were filtered. The pH values of the resulting saturated solutions were measured. The filtrates were diluted and analyzed by HPLC using a general, unoptimized method. The values listed below are averages over multiple repetitions. Additionally Raman spectra of the recovered solids were recorded.

[4] = Thermodynamic stability of polymorphic forms (suspension equilibration); type: physicochemical
Procedure: Polymorphic Form 3 has a melting signal at 200° C. as measured by differential scanning calorimetry and is stable at temperatures above about 60-65° C.
A mixture with similar ratios of the products of Example 4, Experiment 15 (Form 1), Example 4, Experiment 9 (form 2+x) and Example 4, Experiment 6 (Form 2+Form 3) were suspended in acetonitrile and shaken for 13 days at 22° C. to give a product designated Product P24). The solid was recovered by filter centrifugation and characterized by PXRD. […] These signals could be assigned to (i) another crystalline form or (ii) the signals could not be detected for Product P24 because the diffractogram has a lower intensity.
Thus, after 13 days at 22° C. the PXRD corresponds to that of Form 2.

[5] = Dynamic vapour sorption (DVS); type: physicochemical
Procedure: DVS (SPS): Sorption Measurement System SPS11-100n. The sample was placed in an Al crucible, and the sample was allowed to equilibrate at a given r.h. before starting a predefined humidity program. The used measurement program can be recognized in the corresponding figures (blue line).
In order to examine the behaviour of Batch 1 in the presence of variable water vapour pressure, the sample was analyzed by DVS. […] The sample was conditioned at 50% r.h. before starting a pre-defined humidity program with a scanning rate of 5% r.h. change per hour. Below 50% r.h. a continuous mass loss is observed. […] At relative humidities above 84% r.h. an increased water uptake is observed. At 95% r.h. no equilibrium is reached. This is typical for amorphous material. At the end of the measurement (end humidity 50% r.h.) the sample has a 0.6% higher mass as the starting material. The sample was checked by FT-Raman (pre- and post DVS measurements).

Solubility ([3]; FaSSIF) [µg/mL]	pH of Saturated solution ([3]; FaSSIF)	Solubility ([3]; FeSSIF) [µg/mL]	pH of Saturated solution ([3]; FeSSIF)	Temperature range of thermodynamic stability [4]	SMILES	other results
					Cc1c(Cc2cccnc2S(=O)(=O)c2ccc(F)cc2)c2cc(F)ccc2n1CC(=O)O [Compound 1, [5-fluoro-3-({2-[(4-fluorobenzene)sulfonyl]pyridin-3-yl}methyl)-2-methylindol-1-yl]-acetic acid]	CRTH2 antagonist activity [1]: has CRTH2 antagonist activity
					Cc1c(Cc2cccnc2S(=O)(=O)c2ccc(F)cc2)c2cc(F)ccc2n1CC(=O)O [Batch 3, [5-fluoro-3-({2-[(4-fluorobenzene)sulfonyl]pyridin-3-yl}methyl)-2-methylindol-1-yl]-acetic acid]	Decomposition temperature [2]: > 160 °C
550 (≈ 1200 µM)	6.1	350 (≈ 767 µM)	5.0	60-65 °C	Cc1c(Cc2cccnc2S(=O)(=O)c2ccc(F)cc2)c2cc(F)ccc2n1CC(=O)O [Form 2, [5-fluoro-3-({2-[(4-fluorobenzene)sulfonyl]pyridin-3-yl}methyl)-2-methylindol-1-yl]-acetic acid]	Most stable form after suspension equilibration of a mixture of forms ([4]; acetonitrile, 13 days at 22° C., PXRD): most stable form at room temperature
					Cc1c(Cc2cccnc2S(=O)(=O)c2ccc(F)cc2)c2cc(F)ccc2n1CC(=O)O [Batch 1, [5-fluoro-3-({2-[(4-fluorobenzene)sulfonyl]pyridin-3-yl}methyl)-2-methylindol-1-yl]-acetic acid]	Mass change at end of DVS measurement versus starting material ([5]; end humidity 50% r.h., 5% r.h. change per hour): 0.6%; Phase transition after DVS (FT-Raman pre- and post) ([5]; sample recovered from DVS): no phase transition
1310 (≈ 2870 µM)	5.4	2120 (≈ 4640 µM)	5.0	60-65 °C	Cc1c(Cc2cccnc2S(=O)(=O)c2ccc(F)cc2)c2cc(F)ccc2n1CC(=O)O [Form 3, [5-fluoro-3-({2-[(4-fluorobenzene)sulfonyl]pyridin-3-yl}methyl)-2-methylindol-1-yl]-acetic acid]	Comparative solubility among crystalline forms ([3]; FaSSIF and FeSSIF): most soluble crystalline form; also recorded: more soluble in both FaSSIF and FeSSIF

SMILES	Solubility ([3]; FaSSIF) [µg/mL]	pH of Saturated solution ([3]; FaSSIF)	Solubility ([3]; FeSSIF) [µg/mL]	pH of Saturated solution ([3]; FeSSIF)	Temperature range of thermodynamic stability [4]	other results
Cc1c(Cc2cccnc2S(=O)(=O)c2ccc(F)cc2)c2cc(F)ccc2n1CC(=O)O [Form 1, [5-fluoro-3-({2-[(4-fluorobenzene)sulfonyl]pyridin-3-yl}methyl)-2-methylindol-1-yl]-acetic acid]	720 (≈ 1580 µM)	5.7	1180 (≈ 2590 µM)	4.9	thermodynamically stable at high temperatures	
